Results published in patent US10292391B2, “Pesticidally active 1,2,4-triazole derivatives with sulphur containing substituents” (Syngenta Participations AG, priority 2015, dated 2019).

Key:
Type in all cases: in vivo
[1] = system: Spodoptera littoralis (Egyptian Cotton Leaf Worm); assay: Activity against Spodoptera littoralis, sprayed cotton leaf discs; details: foliar, 72 h, application rate of 200 ppm, L1 larvae, 3 days after infestation, read-out: control (at least one of mortality, anti-feedant effect, and growth inhibition)
Method: Cotton leaf discs were placed on agar in 24-well microtiter plates and sprayed with aqueous test solutions prepared from 10,000 ppm DMSO stock solutions. After drying the leaf discs were infested with five L1 larvae. The samples were assessed for mortality, anti-feedant effect, and growth inhibition in comparison to untreated samples 3 days after infestation. Control of Spodoptera littoralis by a test sample is when at least one of mortality, anti-feedant effect, and growth inhibition is higher than the untreated sample.

[2] = system: Diabrotica Balteata (Corn Root Worm); assay: Activity against Diabrotica balteata, sprayed maize sprouts; details: 96 h, application rate of 200 ppm, L2 larvae, 4 days after infestation, read-out: effect in at least one of the two categories (mortality or growth inhibition)
Method: Maize sprouts, placed on an agar layer in 24-well microtiter plates were treated with aqueous test solutions prepared from 10,000 ppm DMSO stock solutions by spraying. After drying, the plates were infested with L2 larvae (6 to 10 per well). The samples were assessed for mortality and growth inhibition in comparison to untreated samples 4 days after infestation.

[3] = system: Euschistus heros(Neotropical Brown Stink Bug); assay: Activity against Euschistus heros, sprayed soybean leaf; details: 120 h, application rate of 200 ppm, N-2 nymphs, 5 days after infestation, read-out: effect in at least one of the two categories (mortality or growth inhibition)
Method: Soybean leaf on agar in 24-well microtiter plates were sprayed with aqueous test solutions prepared from 10,000 ppm DMSO stock solutions. After drying the leaf were infested with N-2 nymphs. The samples were assessed for mortality and growth inhibition in comparison to untreated samples 5 days after infestation.

[4] = system: Frankliniella occidentalis (Western Flower Thrips); assay: Activity against Frankliniella occidentalis, sprayed sunflower leaf discs; details: foliar, 168 h, application rate of 200 ppm, population of mixed ages, 7 days after infestation
Method: Sunflower leaf discs were placed on agar in 24-well microtiter plates and sprayed with aqueous test solutions prepared from 10,000 DMSO stock solutions. After drying the leaf discs were infested with a Frankliniella population of mixed ages. The samples were assessed for mortality 7 days after infestation.

[5] = system: Myzus persicae (Green Peach Aphid); assay: Activity against Myzus persicae, sprayed sunflower leaf discs; details: foliar, 144 h, application rate of 200 ppm, aphid population of mixed ages, 6 days after infestation
Method: Sunflower leaf discs were placed on agar in a 24-well microtiter plate and sprayed with aqueous test solutions prepared from 10,000 ppm DMSO stock solutions. After drying, the leaf discs were infested with an aphid population of mixed ages. The samples were assessed for mortality 6 days after infestation.

[6] = system: Plutella xylostella (Diamond Back Moth); assay: Activity against Plutella xylostella, treated artificial diet; details: 120 h, application rate of 200 ppm, L2 larvae, 5 days after infestation, read-out: effect in at least one of the two categories (mortality or growth inhibition)
Method: 24-well microtiter plates with artificial diet were treated with aqueous test solutions prepared from 10,000 ppm DMSO stock solutions by pipetting. After drying, the plates were infested with L2 larvae (10 to 15 per well). The samples were assessed for mortality and growth inhibition in comparison to untreated samples 5 days after infestation.

[7] = system: Myzus persicae (Green Peach Aphid); assay: Activity against Myzus persicae, systemic via roots of pea seedlings; details: 144 h, test rate of 24 ppm, roots of pea seedlings in test solution, 6 days
Method: Roots of pea seedlings infested with an aphid population of mixed ages were placed directly in the aqueous test solutions prepared from 10,000 DMSO stock solutions. The samples were assessed for mortality 6 days after placing seedlings in test solutions.

[8] = system: Spodoptera littoralis (Egyptian Cotton Leaf Worm); assay: Activity against Spodoptera littoralis, systemic via lettuce grown on treated agar; details: 144 h, test rate of 12.5 ppm, root uptake by lettuce, 6 days after infestation, read-out: effect in at least one of the three categories (mortality, anti-feedancy, or growth inhibition)
Excerpt: Test compounds were applied by pipette from 10,000 ppm DMSO stock solutions into 24-well plates and mixed with agar. Lettuce seeds were placed on the agar and the multi well plate was closed by another plate which contains also agar. After 7 days the roots have absorbed the compound and the lettuce has grown into the lid plate. The lettuce leafs were now cut off into the lid plate. Spodoptera eggs were pipetted through a plastic stencil on a humid gel blotting paper and the plate closed with it. The samples were assessed for mortality, anti-feedant effect and growth inhibition in comparison to untreated samples 6 days after infestation.

CCSc1cc(-c2ccc(Cl)cc2)cnc1-c1nnc(-c2cc(C(F)(F)F)ccn2)n1C [Compound P1, 5-(4-chlorophenyl)-3-ethylsulfanyl-2-[4-methyl-5-[4-(trifluoromethyl)-2-pyridyl]-1,2,4-triazol-3-yl]pyridine]
≥ 80%: mortality at 200 ppm [1] | percent effect (mortality or growth inhibition) at 200 ppm [2]

CCS(=O)(=O)c1cc(-c2ccc(Cl)cc2)cnc1-c1nnc(-c2cc(C(F)(F)F)ccn2)n1C [Compound P2, 5-(4-chlorophenyl)-3-ethylsulfonyl-2-[4-methyl-5-[4-(trifluoromethyl)-2-pyridyl]-1,2,4-triazol-3-yl]pyridine]
≥ 80%: mortality at 200 ppm [1] | percent effect (mortality or growth inhibition) at 200 ppm [2]

CCSc1cc(-n2cccn2)cnc1-c1nnc(-c2cc(C(F)(F)F)ccn2)n1C [Compound P3, 3-ethylsulfanyl-2-[4-methyl-5-[4-(trifluoromethyl)-2-pyridyl]-1,2,4-triazol-3-yl]-5-pyrazol-1-yl-pyridine]
≥ 80%: percent effect (mortality or growth inhibition) at 200 ppm [3] | mortality at 200 ppm [4]

CCS(=O)(=O)c1cc(-n2cccn2)cnc1-c1nnc(-c2cc(C(F)(F)F)ccn2)n1C [Compound P4, 3-ethylsulfonyl-2-[4-methyl-5-[4-(trifluoromethyl)-2-pyridyl]-1,2,4-triazol-3-yl]-5-pyrazol-1-yl-pyridine]
≥ 80%: mortality at 200 ppm [1] | mortality at 200 ppm [5] | percent effect (mortality or growth inhibition) at 200 ppm [3]

CCSc1cc(-n2cc(C(F)(F)F)cn2)cnc1-c1nnc(-c2cc(C(F)(F)F)ccn2)n1C [Compound P5]
≥ 80%: percent effect (mortality or growth inhibition) at 200 ppm [2]

CCSc1cc(-c2ncccn2)cnc1-c1nnc(-c2cc(C(F)(F)F)ccn2)n1C [Compound P8]
≥ 80%: percent effect (mortality or growth inhibition) at 200 ppm [2] | percent effect (mortality or growth inhibition) at 200 ppm [6] | mortality at 200 ppm [4]

CCS(=O)(=O)c1cc(-c2ccc(C(F)(F)F)cc2)cnc1-c1nnc(-c2cc(C(F)(F)F)ccn2)n1C [Compound P11]
≥ 80%: mortality at 200 ppm [1] | percent effect (mortality or growth inhibition) at 200 ppm [2] | mortality at 200 ppm [5] | percent effect (mortality or growth inhibition) at 200 ppm [6] | percent effect (mortality or growth inhibition) at 200 ppm [3]

C=Cc1cnc(-c2nnc(-c3cc(C(F)(F)F)ccn3)n2C)c(S(=O)(=O)CC)c1 [Compound P12, 3-ethylsulfonyl-2-[4-methyl-5-[4-(trifluoromethyl)-2-pyridyl]-1,2,4-triazol-3-yl]-5-vinyl-pyridine]
≥ 80%: mortality at 24 ppm [7] | mortality at 200 ppm [5]

CCS(=O)(=O)c1cc(-n2ccc(C#N)n2)cnc1-c1nnc(-c2cc(C(F)(F)F)ccn2)n1C [Compound P16]
≥ 80%: mortality at 200 ppm [1] | percent effect (mortality or growth inhibition) at 200 ppm [2] | mortality at 200 ppm [5] | percent effect (mortality or growth inhibition) at 200 ppm [6] | percent control (mortality, anti-feedancy or growth inhibition) at 12.5 ppm [8]

CCS(=O)(=O)c1cc(-c2ncc(Cl)cn2)cnc1-c1nnc(-c2cc(C(F)(F)F)ccn2)n1C [Compound P18]
≥ 80%: mortality at 200 ppm [1] | percent effect (mortality or growth inhibition) at 200 ppm [2]

CCS(=O)(=O)c1cc(-c2ncc(C#N)cn2)cnc1-c1nnc(-c2cc(C(F)(F)F)ccn2)n1C [Compound P20]
≥ 80%: mortality at 200 ppm [1] | percent effect (mortality or growth inhibition) at 200 ppm [2] | mortality at 200 ppm [5] | percent effect (mortality or growth inhibition) at 200 ppm [6] | percent effect (mortality or growth inhibition) at 200 ppm [3] | percent control (mortality, anti-feedancy or growth inhibition) at 12.5 ppm [8]

CCS(=O)(=O)c1cc(-c2cccc(C#N)n2)cnc1-c1nnc(-c2cc(C(F)(F)F)ccn2)n1C [Compound P21]
≥ 80%: mortality at 200 ppm [1] | percent effect (mortality or growth inhibition) at 200 ppm [2] | mortality at 200 ppm [5] | percent effect (mortality or growth inhibition) at 200 ppm [6] | percent effect (mortality or growth inhibition) at 200 ppm [3] | percent control (mortality, anti-feedancy or growth inhibition) at 12.5 ppm [8] | mortality at 200 ppm [4]

CCS(=O)(=O)c1cc(-c2cccc(Cl)n2)cnc1-c1nnc(-c2cc(C(F)(F)F)ccn2)n1C [Compound P24, 5-(6-chloro-2-pyridyl)-3-ethylsulfonyl-2-[4-methyl-5-[4-(trifluoromethyl)-2-pyridyl]-1,2,4-triazol-3-yl]pyridine]
≥ 80%: mortality at 200 ppm [1] | percent effect (mortality or growth inhibition) at 200 ppm [2] | percent effect (mortality or growth inhibition) at 200 ppm [6] | percent effect (mortality or growth inhibition) at 200 ppm [3]

CCS(=O)(=O)c1cc(-n2ccc(Cl)n2)cnc1-c1nnc(-c2cc(C(F)(F)F)ccn2)n1C [Compound P28]
≥ 80%: mortality at 200 ppm [1] | percent effect (mortality or growth inhibition) at 200 ppm [2] | mortality at 200 ppm [5] | percent effect (mortality or growth inhibition) at 200 ppm [6] | percent effect (mortality or growth inhibition) at 200 ppm [3] | percent control (mortality, anti-feedancy or growth inhibition) at 12.5 ppm [8] | mortality at 200 ppm [4]

CCS(=O)(=O)c1cc(SC(F)(F)F)cnc1-c1nnc(-c2cc(C(F)(F)F)ccn2)n1C [Compound P34, 3-ethylsulfonyl-2-[4-methyl-5-[4-(trifluoromethyl)-2-pyridyl]-1,2,4-triazol-3-yl]-5-(trifluoromethylsulfanyl)pyridine]
≥ 80%: percent effect (mortality or growth inhibition) at 200 ppm [2] | mortality at 200 ppm [5]

CCS(=O)(=O)c1cc(S(=O)(=O)C(F)(F)F)cnc1-c1nnc(-c2cc(C(F)(F)F)ccn2)n1C [Compound P35, 3-ethylsulfonyl-2-[4-methyl-5-[4-(trifluoromethyl)-2-pyridyl]-1,2,4-triazol-3-yl]-5-(trifluoromethylsulfonyl)pyridine]
≥ 80%: mortality at 200 ppm [1] | percent effect (mortality or growth inhibition) at 200 ppm [2] | percent effect (mortality or growth inhibition) at 200 ppm [6]

CCS(=O)(=O)c1cc([S+]([O-])C(F)(F)F)cnc1-c1nnc(-c2cc(C(F)(F)F)ccn2)n1C (stereo not drawn) [Compound P36, 3-ethylsulfonyl-2-[4-methyl-5-[4-(trifluoromethyl)-2-pyridyl]-1,2,4-triazol-3-yl]-5-(trifluoromethylsulfinyl)pyridine]
≥ 80%: mortality at 24 ppm [7] | percent effect (mortality or growth inhibition) at 200 ppm [2]

CCS(=O)(=O)c1ccc(C2CC2)nc1-c1nnc(-c2cc(C(F)(F)F)ccn2)n1C [Compound P38]
≥ 80%: mortality at 200 ppm [1] | percent effect (mortality or growth inhibition) at 200 ppm [2] | percent effect (mortality or growth inhibition) at 200 ppm [6]

CCS(=O)(=O)c1ccc(-c2cccc(F)c2)nc1-c1nnc(-c2cc(C(F)(F)F)ccn2)n1C [Compound P50, 3-ethylsulfonyl-6-(3-fluorophenyl)-2-[4-methyl-5-[4-(trifluoromethyl)-2-pyridyl]-1,2,4-triazol-3-yl]pyridine]
≥ 80%: mortality at 200 ppm [1] | percent effect (mortality or growth inhibition) at 200 ppm [2] | mortality at 200 ppm [5] | percent effect (mortality or growth inhibition) at 200 ppm [6] | percent effect (mortality or growth inhibition) at 200 ppm [3] | percent control (mortality, anti-feedancy or growth inhibition) at 12.5 ppm [8] | mortality at 200 ppm [4]

CCS(=O)(=O)c1cc(-c2cccc(F)c2)cnc1-c1nnc(-c2cc(C(F)(F)F)ncn2)n1C [Compound P52]
≥ 80%: mortality at 200 ppm [1] | percent effect (mortality or growth inhibition) at 200 ppm [2] | mortality at 200 ppm [5] | percent effect (mortality or growth inhibition) at 200 ppm [6] | percent effect (mortality or growth inhibition) at 200 ppm [3] | percent control (mortality, anti-feedancy or growth inhibition) at 12.5 ppm [8] | mortality at 200 ppm [4]

CCS(=O)(=O)c1cc(-c2cccc(F)c2)cnc1-c1nnc(-c2cc(C(F)(F)F)ccn2)n1C [Compound P53]
≥ 80%: mortality at 200 ppm [1] | percent effect (mortality or growth inhibition) at 200 ppm [2] | percent effect (mortality or growth inhibition) at 200 ppm [6]
